Experimental data as given in US10829478B2, “5-[3-[piperazin-1-yl]-3-oxo-propyl]-imidazolidine-2,4-dione derivatives as ADAMTS 4 and 5 inhibitors for treating e.g. osteoarthritis” (Galapagos NV, priority 2016, dated 2020).
pIC50: −log10 of the molar value. Like-named read-outs stand apart in the source and are kept apart here.

How the values were obtained:
human ADAMTS-5 = human ADAMTS-5 (Homo sapiens (Human), UniProt Q9UNA0); assay: hADAMTS-5 TBIS-1 cleavage assay, Protocol 3; type: biochemical; conditions: 90 min at 37° C., read-out: hADAMTS-5 potency IC50
human ADAMTS-5, sequence (Q9UNA0 262-930): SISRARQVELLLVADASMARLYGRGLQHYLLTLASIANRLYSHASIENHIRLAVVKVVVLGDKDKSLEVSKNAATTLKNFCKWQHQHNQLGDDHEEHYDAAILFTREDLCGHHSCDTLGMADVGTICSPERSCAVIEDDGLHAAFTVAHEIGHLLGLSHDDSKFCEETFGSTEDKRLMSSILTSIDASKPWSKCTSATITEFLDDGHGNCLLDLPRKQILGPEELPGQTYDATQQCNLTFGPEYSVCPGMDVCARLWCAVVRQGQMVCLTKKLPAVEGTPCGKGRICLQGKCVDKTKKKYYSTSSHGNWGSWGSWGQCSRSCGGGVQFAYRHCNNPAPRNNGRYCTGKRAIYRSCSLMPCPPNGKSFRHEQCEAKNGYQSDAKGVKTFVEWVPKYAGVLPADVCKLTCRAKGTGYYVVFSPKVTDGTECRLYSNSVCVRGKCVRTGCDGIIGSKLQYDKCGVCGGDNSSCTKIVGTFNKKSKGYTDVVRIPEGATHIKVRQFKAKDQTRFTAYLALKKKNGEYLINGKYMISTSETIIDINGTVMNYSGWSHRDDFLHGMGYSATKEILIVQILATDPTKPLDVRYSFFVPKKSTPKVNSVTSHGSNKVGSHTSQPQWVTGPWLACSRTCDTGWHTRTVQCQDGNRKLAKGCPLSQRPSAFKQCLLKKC
Protocol: The reaction is initiated by adding to the assay plate TBIS-1 (10 μL, 4.5 μM, Anaspec) in the same buffer.
Finally, the fluorescence is read on the Envision (Perkin Elmer) after an incubation of 90 min at 37° C. (Excitation 485 nm, emission 530).

rnADAMTS-5 (1-564-6H) = rnADAMTS-5 (1-564-6H) (Rattus norvegicus (Rat), UniProt Q6TY19); assay: Rat ADAMTS-5 TBIS-1 cleavage assay; type: biochemical; conditions: 120 min at 37° C.; read-out: Rat ADAMTS-5 potency IC50
rnADAMTS-5 (1-564-6H), sequence (Q6TY19 entry or part of it): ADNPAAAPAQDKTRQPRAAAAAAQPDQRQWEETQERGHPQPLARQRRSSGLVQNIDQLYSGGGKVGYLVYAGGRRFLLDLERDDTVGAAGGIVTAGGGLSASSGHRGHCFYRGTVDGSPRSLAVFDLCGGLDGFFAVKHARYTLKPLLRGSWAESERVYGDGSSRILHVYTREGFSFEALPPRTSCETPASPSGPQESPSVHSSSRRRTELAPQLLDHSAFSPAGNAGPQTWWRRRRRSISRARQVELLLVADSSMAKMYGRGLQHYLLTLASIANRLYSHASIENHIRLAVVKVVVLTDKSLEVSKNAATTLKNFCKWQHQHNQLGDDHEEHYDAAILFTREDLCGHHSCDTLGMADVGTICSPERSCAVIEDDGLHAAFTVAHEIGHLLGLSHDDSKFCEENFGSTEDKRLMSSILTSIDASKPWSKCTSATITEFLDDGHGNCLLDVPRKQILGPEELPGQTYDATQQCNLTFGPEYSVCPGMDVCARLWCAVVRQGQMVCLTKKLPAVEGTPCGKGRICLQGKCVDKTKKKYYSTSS

human ADAMTS6 = human ADAMTS6 (Homo sapiens (Human), UniProt Q9UKP5); assay: hADAMTS-6 fluorescent based protease assay (520 MMP FRET substrate XII); type: biochemical; conditions: 37° C. for 2 h; read-out: hADAMTS-6 potency IC50
human ADAMTS6, sequence (Q9UKP5 other isoform, or with tags, fused parts or gaps): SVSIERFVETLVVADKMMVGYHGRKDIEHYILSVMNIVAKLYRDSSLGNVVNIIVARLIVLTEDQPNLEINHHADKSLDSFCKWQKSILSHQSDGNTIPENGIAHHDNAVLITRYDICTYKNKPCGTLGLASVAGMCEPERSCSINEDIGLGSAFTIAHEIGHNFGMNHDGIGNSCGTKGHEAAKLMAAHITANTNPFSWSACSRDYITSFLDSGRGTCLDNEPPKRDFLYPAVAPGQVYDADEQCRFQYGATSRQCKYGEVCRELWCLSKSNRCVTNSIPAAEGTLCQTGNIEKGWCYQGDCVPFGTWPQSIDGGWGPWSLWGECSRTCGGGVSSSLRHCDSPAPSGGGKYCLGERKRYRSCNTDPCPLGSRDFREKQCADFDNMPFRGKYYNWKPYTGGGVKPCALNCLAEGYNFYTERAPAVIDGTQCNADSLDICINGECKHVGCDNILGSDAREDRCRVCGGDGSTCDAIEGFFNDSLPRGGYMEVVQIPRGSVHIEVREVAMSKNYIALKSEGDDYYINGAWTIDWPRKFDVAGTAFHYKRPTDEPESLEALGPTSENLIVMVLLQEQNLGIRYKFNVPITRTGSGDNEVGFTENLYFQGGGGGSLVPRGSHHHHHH
How it was run: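 ADAMTS6 (0.73 nM final) in 25 mM Tris pH 8.0, 0.05% CHAPS, 2.5 mM CaCl2 with compound dilution series (top 20 μM, 1/5 steps). Reaction started with 520 MMP FRET Substrate XII, incubated 2 h at 37 °C. Substrate cleavage read by fluorescence ex485/em530; IC50 determined.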

human MMP14 = human MMP14 (Homo sapiens (Human), UniProt P50281); assay: hMMP14 assay (390 MMP FRET Substrate I); type: biochemical; conditions: human MMP14 (Biomol), read-out: hMMP-14 potency IC50
Protocol: The basis for the assay is the cleavage of the substrate 390 MMP FRET Substrate I (Anaspec Cat #AS-27076) by human MMP14 (Biomol, Cat #SE-259).
The reaction is initiated by adding to the assay plate 390 MMP FRET Substrate I (10 μL, 2.5 μM) in the same buffer.
Finally, the fluorescence is read on the Envision (Perkin Elmer) after an incubation of 60 min at room temperature (Excitation 485 nm, Emission 530).

human TACE = human TACE (Homo sapiens (Human), UniProt P78536); assay: biochemical
human TACE, sequence (P78536 215-671): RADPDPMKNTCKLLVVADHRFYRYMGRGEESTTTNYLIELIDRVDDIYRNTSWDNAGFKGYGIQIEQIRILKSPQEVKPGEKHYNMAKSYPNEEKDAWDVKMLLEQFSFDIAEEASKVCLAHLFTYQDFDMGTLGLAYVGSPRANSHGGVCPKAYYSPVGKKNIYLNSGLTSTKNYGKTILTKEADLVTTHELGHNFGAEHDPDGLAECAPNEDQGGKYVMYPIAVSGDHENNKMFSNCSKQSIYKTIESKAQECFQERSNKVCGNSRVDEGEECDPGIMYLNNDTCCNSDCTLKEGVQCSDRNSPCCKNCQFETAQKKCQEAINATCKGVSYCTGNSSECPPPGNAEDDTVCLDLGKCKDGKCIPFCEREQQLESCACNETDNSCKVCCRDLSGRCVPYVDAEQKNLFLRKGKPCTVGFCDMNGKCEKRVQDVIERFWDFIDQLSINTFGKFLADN
Protocol: Finally, the fluorescence is read on the Envision (Perkin Elmer) after an incubation of 75 min at room temperature (Excitation 485 nm, Emission 530).

human MMP13 = human MMP13 (Homo sapiens (Human), UniProt P45452); assay: hMMP13 assay, Protocol 2 (390 MMP FRET Substrate I, Enzo enzyme); type: biochemical; conditions: Protocol 2, human MMP13 (Enzo Life Sciences), read-out: hMMP-13 potency IC50
Protocol: Human MMP13 is preactivated by incubated the enzyme in the same buffer complemented with 1 mM freshly prepared p-Aminophenylmercuric acetate (AMPA) for 1 h at 37° C.

human ADAMTS4 = human ADAMTS4 (Homo sapiens (Human), UniProt O75173); assay: hADAMTS-4 TBIS-1 cleavage assay, Protocol 2; type: biochemical
human ADAMTS4, sequence (O75173 213-837): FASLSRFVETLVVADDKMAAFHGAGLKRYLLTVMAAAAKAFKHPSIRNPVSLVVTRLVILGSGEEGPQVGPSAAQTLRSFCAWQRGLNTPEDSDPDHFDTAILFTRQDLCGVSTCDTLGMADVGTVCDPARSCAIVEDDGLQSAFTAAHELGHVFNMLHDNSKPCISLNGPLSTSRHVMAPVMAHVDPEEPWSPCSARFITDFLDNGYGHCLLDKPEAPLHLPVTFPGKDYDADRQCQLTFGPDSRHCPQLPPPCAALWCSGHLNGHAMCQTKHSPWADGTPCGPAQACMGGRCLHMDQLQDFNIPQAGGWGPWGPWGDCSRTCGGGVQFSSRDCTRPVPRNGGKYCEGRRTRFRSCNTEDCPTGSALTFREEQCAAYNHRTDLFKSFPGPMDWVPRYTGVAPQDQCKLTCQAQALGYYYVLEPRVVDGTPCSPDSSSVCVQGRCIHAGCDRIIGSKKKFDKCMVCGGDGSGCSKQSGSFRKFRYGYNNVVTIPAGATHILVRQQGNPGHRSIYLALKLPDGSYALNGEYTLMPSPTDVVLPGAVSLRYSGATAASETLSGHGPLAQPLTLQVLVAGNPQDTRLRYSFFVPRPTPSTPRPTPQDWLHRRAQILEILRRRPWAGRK

[1] = Protocol 2, 180 min at 37° C., read-out: ADAMTS4 potency IC50

Row | SMILES | pIC50 (human ADAMTS-5) | pIC50 (rnADAMTS-5 (1-564-6H)) | pIC50 (human ADAMTS6) | pIC50 (human MMP14) | pIC50 (human TACE) | pIC50 (human MMP13) | pIC50 (human ADAMTS4; [1]) | pIC50 (human ADAMTS4)
1 | COc1cc(F)cc(N2CCN(C(=O)[C@H](C)C[C@@]3(C)NC(=O)NC3=O)CC2)c1 (stereo in doubt) [Cpd 131, 5-[3-[4-(3-fluoro-5-methoxy-phenyl)piperazin-1-yl]-2-methyl-3-oxo-propyl]-5-methyl-imidazolidine-2,4-dione] | < 7.00 | < 7.00 | < 7.00 | – | – | – | – | –
2 | COc1cncc(N2CCN(C(=O)[C@@H](C)C[C@@]3(C4CC4)NC(=O)NC3=O)C[C@@H]2C)c1 (stereo in doubt) [Cpd 64, 5-cyclopropyl-5-[3-[(3 S)-4-(5-methoxy-3-pyridyl)-3-methyl-piperazin-1-yl]-2-methyl-3-oxo-propyl]imidazolidine-2,4-dione] | 7.00 to 7.30 | – | 7.00 to 7.30 | < 7.00 | < 7.00 | < 7.00 | < 7.00 | –
3 | COC[C@]1(C[C@H](C)C(=O)N2CCN(c3cc(F)c(Cl)c(OC)c3)[C@@H](C)C2)NC(=O)NC1=O (mixture of isomers) [Cpd 121, 5-[3-[(3S)-4-(4-chloro-3-fluoro-5-methoxy-phenyl)-3-methyl-piperazin-1-yl]-2-methyl-3-oxo-propyl]-5-(methoxymethyl)imidazolidine-2,4-dione] | 7.30 to 7.60 | – | 7.60 to 12.00 | < 7.00 | < 7.00 | < 7.00 | – | 7.00 to 7.30
4 | CC[C@]1(C[C@H](C)C(=O)N2CCN(c3cc(F)c(F)c(OC)c3)CC2)NC(=O)NC1=O [Cpd 57, (5R)-5-[(2S)-3-[4-(3,4-difluoro-5-methoxy-phenyl)piperazin-1-yl]-2-methyl-3-oxo-propyl]-5-ethyl-imidazolidine-2,4-dione] | 7.30 to 7.60 | – | 7.60 to 12.00 | < 7.00 | < 7.00 | < 7.00 | – | 7.00 to 7.30
5 | COc1cc(N2CCN(C(=O)CC[C@@]3(C4CC4)NC(=O)NC3=O)C[C@@H]2C)cc(F)c1Cl [Cpd 65, (5S)-5-[3-[(3S)-4-(4-chloro-3-fluoro-5-methoxy-phenyl)-3-methyl-piperazin-1-yl]-3-oxo-propyl]-5-cyclopropyl-imidazolidine-2,4-dione] | 7.60 to 12.00 | – | 7.60 to 12.00 | < 7.00 | < 7.00 | < 7.00 | – | 7.00 to 7.30
6 | COC[C@]1(C[C@H](C)C(=O)N2CCN(c3cc(F)c(Cl)c(OC)c3)CC2)NC(=O)NC1=O [Cpd 123, (5 S)-5-[(2S)-3-[4-(4-chloro-3-fluoro-5-methoxy-phenyl)piperazin-1-yl]-2-methyl-3-oxo-propyl]-5-(methoxymethyl)imidazolidine-2,4-dione] | 7.60 to 12.00 | – | 7.60 to 12.00 | < 7.00 | < 7.00 | < 7.00 | – | 7.00 to 7.30
7 | COc1cc(N2CCN(C(=O)C(C)CC3(C)NC(=O)NC3=O)C[C@@H]2C)cc(C)c1Cl (mixture of isomers) [Cpd 125, 5-[3-[(3S)-4-(4-chloro-3-methoxy-5-methyl-phenyl)-3-methyl-piperazin-1-yl]-2-methyl-3-oxo-propyl]-5-methyl-imidazolidine-2,4-dione] | 7.30 to 7.60 | – | 7.60 to 12.00 | < 7.00 | < 7.00 | < 7.00 | – | 7.00 to 7.30
8 | COc1cc(N2CCN(C(=O)CC[C@@]3(C)NC(=O)NC3=O)C[C@@H]2C)cc(Cl)c1F [Cpd 63, (5R)-5-[3-[(3 S)-4-(3-chloro-4-fluoro-5-methoxy-phenyl)-3-methyl-piperazin-1-yl]-3-oxo-propyl]-5-methyl-imidazolidine-2,4-dione] | 7.30 to 7.60 | – | 7.60 to 12.00 | < 7.00 | < 7.00 | < 7.00 | < 7.00 | –
9 | CCc1cc(N2CCN(C(=O)CC[C@@]3(C)NC(=O)NC3=O)CC2)cc(OC)c1Cl [Cpd 115, (5R)-5-[3-[4-(4-chloro-3-ethyl-5-methoxy-phenyl)piperazin-1-yl]-3-oxo-propyl]-5-methyl-imidazolidine-2,4-dione] | < 7.00 | – | 7.60 to 12.00 | < 7.00 | < 7.00 | < 7.00 | < 7.00 | –
10 | COc1cc(N2CCN(C(=O)CC[C@@]3(C)NC(=O)NC3=O)C[C@@H]2C)cc(F)c1Cl [Cpd 119, (5R)-5-[3-[(3 S)-4-(4-chloro-3-fluoro-5-methoxy-phenyl)-3-methyl-piperazin-1-yl]-3-oxo-propyl]-5-methyl-imidazolidine-2,4-dione] | 7.60 to 12.00 | – | 7.60 to 12.00 | < 7.00 | < 7.00 | < 7.00 | < 7.00 | –
11 | COc1cc(N2CCN(C(=O)CC[C@@]3(C)NC(=O)NC3=O)CC2)cc(OC)c1F [Cpd 74, (5R)-5-[3-[4-(4-fluoro-3,5-dimethoxy-phenyl)piperazin-1-yl]-3-oxo-propyl]-5-methyl-imidazolidine-2,4-dione] | < 7.00 | – | 7.60 to 12.00 | < 7.00 | < 7.00 | < 7.00 | < 7.00 | –
12 | COc1cc(N2CCN(C(=O)CC[C@@]3(C4CC4)NC(=O)NC3=O)C[C@@H]2C)cc(Cl)c1F [Cpd 62, (5S)-5-[3-[(3S)-4-(3-chloro-4-fluoro-5-methoxy-phenyl)-3-methyl-piperazin-1-yl]-3-oxo-propyl]-5-cyclopropyl-imidazolidine-2,4-dione] | 7.60 to 12.00 | – | 7.60 to 12.00 | < 7.00 | < 7.00 | < 7.00 | – | 7.00 to 7.30
13 | COc1cc(N2CCN(C(=O)[C@@H](C)C[C@@]3(C)NC(=O)NC3=O)CC2)cc(F)c1Cl [Cpd 122, (5R)-5-[(2S)-3-[4-(4-chloro-3-fluoro-5-methoxy-phenyl)piperazin-1-yl]-2-methyl-3-oxo-propyl]-5-methyl-imidazolidine-2,4-dione] | 7.60 to 12.00 | – | 7.60 to 12.00 | < 7.00 | < 7.00 | < 7.00 | – | 7.00 to 7.30
14 | CCc1cc(N2CCN(C(=O)[C@@H](C)C[C@@]3(COC)NC(=O)NC3=O)C[C@@H]2C)cc(OC)c1Cl (mixture of isomers) [Cpd 117, 5-[3-[(3S)-4-(4-chloro-3-ethyl-5-methoxy-phenyl)-3-methyl-piperazin-1-yl]-2-methyl-3-oxo-propyl]-5-(methoxymethyl)imidazolidine-2,4-dione] | 7.00 to 7.30 | – | 7.60 to 12.00 | < 7.00 | < 7.00 | < 7.00 | < 7.00 | –
15 | COc1cc(Cl)cc(N2CCN(C(=O)CC[C@@]3(C)NC(=O)NC3=O)C[C@@H]2C)c1 [Cpd 96, (5R)-5-[3-[(3 S)-4-(3-chloro-5-methoxy-phenyl)-3-methyl-piperazin-1-yl]-3-oxo-propyl]-5-methyl-imidazolidine-2,4-dione] | < 7.00 | – | 7.60 to 12.00 | < 7.00 | < 7.00 | < 7.00 | < 7.00 | –
16 | COc1cc(N2CCN(C(=O)[C@@H](C)C[C@H]3NC(=O)NC3=O)CC2)cc(F)c1F (stereo in doubt) [Cpd 51, 5-[3-[4-(3,4-difluoro-5-methoxy-phenyl)piperazin-1-yl]-2-methyl-3-oxo-propyl]imidazolidine-2,4-dione] | < 7.00 | – | 7.60 to 12.00 | < 7.00 | < 7.00 | < 7.00 | < 7.00 | –
17 | COc1cc(N2CCN(C(=O)CC[C@@]3(C)NC(=O)NC3=O)C[C@@H]2C)ccc1Cl [Cpd 55, (5R)-5-[3-[(3 S)-4-(4-chloro-3-methoxy-phenyl)-3-methyl-piperazin-1-yl]-3-oxo-propyl]-5-methyl-imidazolidine-2,4-dione] | 7.00 to 7.30 | – | 7.60 to 12.00 | < 7.00 | < 7.00 | < 7.00 | < 7.00 | –
18 | COc1cc(N2CCN(C(=O)CC[C@@]3(C)NC(=O)NC3=O)CC2)cc(C)c1Cl [Cpd 112, (5R)-5-[3-[4-(4-chloro-3-methoxy-5-methyl-phenyl)piperazin-1-yl]-3-oxo-propyl]-5-methyl-imidazolidine-2,4-dione] | < 7.00 | – | 7.60 to 12.00 | < 7.00 | < 7.00 | < 7.00 | – | 7.00 to 7.30
19 | COc1cc(N2CCN(C(=O)CC[C@H]3NC(=O)NC3=O)CC2)cc(Cl)c1F [Cpd 147, (5R)-5-[3-[4-(3-chloro-4-fluoro-5-methoxy-phenyl)piperazin-1-yl]-3-oxo-propyl]imidazolidine-2,4-dione] | < 7.00 | – | 7.60 to 12.00 | < 7.00 | < 7.00 | < 7.00 | < 7.00 | –
20 | CCOc1cc(N2CCN(C(=O)CC[C@@]3(C)NC(=O)NC3=O)CC2)cc(OC)c1Cl [Cpd 79, (5R)-5-[3-[4-(4-chloro-3-ethoxy-5-methoxy-phenyl)piperazin-1-yl]-3-oxo-propyl]-5-methyl-imidazolidine-2,4-dione] | < 7.00 | – | 7.60 to 12.00 | < 7.00 | < 7.00 | < 7.00 | < 7.00 | –
